Patent EP4800015A1, “AZABICYCLO DERIVATIVE AND PREPARATION METHOD THEREFOR, AND USE” (Zhejiang Hisun Pharmaceutical Co., Ltd., priority 2023, dated 2025)
pIC50: −log10 of the molar value.

What was measured:
SW48 cells = assay: Inhibition of SW48 cell proliferation (CellTiter-Glo); format: cell-based; settings: Homo sapiens; SW48 cells (MSI-H), 120 hours
Procedure: (§1) The following method was used to determine the effect of the compounds of the present disclosure on SW48 cell proliferation. SW48 cells (MSI-H cells) were purchased from American ATCC cell bank and cultured in Leibovitz's L-15 medium (Gibco, catalog No. 11415064) containing 10% fetal bovine serum, 100 U penicillin, and 100 µg/mL streptomycin. Cell viability was determined by CellTiter-Glo® Luminescent Cell Viability Assay kit (Promega, catalog No. G7573).
(§2) The experiment was performed according to the steps of the kit manual, which is briefly described as follows: test compounds were first dissolved in DMSO to prepare 10 mM stock solutions, and then diluted with medium to prepare test samples, with final compound concentrations ranging from 10000 nM to 1.52 nM. Cells in logarithmic growth phase were seeded into 96-well cell culture plates at a density of 500 cells per well and cultured overnight at 37 °C in an air incubator, then test compounds were added and cultivation continued for 120 hours. After the cultivation was completed, 40 µL of CellTiter-Glo detection reagent was added to each well, shaken for 5 minutes, and then left to stand for 10 minutes. Luminescence values of each well were read on a microplate reader using Luminescence mode. The percentage inhibition at each concentration point was calculated by comparison with the control group (0.1% DMSO), and then IC50 values for the compounds for inhibition of cell proliferation were obtained using nonlinear regression analysis of compound concentration logarithm versus inhibition rate in GraphPad Prism 9 software, as shown in Table 2.
The IC50 value results of the compounds of the present disclosure are represented by A, wherein "A" indicates 1 nM < IC50 ≤ 100 nM. Table 2 IC50 data for inhibition of SW48 cell proliferation by the compounds of the present disclosure

recombinant human WRN = target: T1, recombinant human WRN (Homo sapiens, UniProt Q14191); assay: Inhibition of WRN enzyme activity (ATPase), ADP-Glo Kinase Assay; format: biochemical; settings: WRN protein 5 nM, Flap 0.1 nM, ATP 30 µM; read-out: IC50
T1 construct: purchased BPS 101264
T1 sequence (Q14191 whole entry): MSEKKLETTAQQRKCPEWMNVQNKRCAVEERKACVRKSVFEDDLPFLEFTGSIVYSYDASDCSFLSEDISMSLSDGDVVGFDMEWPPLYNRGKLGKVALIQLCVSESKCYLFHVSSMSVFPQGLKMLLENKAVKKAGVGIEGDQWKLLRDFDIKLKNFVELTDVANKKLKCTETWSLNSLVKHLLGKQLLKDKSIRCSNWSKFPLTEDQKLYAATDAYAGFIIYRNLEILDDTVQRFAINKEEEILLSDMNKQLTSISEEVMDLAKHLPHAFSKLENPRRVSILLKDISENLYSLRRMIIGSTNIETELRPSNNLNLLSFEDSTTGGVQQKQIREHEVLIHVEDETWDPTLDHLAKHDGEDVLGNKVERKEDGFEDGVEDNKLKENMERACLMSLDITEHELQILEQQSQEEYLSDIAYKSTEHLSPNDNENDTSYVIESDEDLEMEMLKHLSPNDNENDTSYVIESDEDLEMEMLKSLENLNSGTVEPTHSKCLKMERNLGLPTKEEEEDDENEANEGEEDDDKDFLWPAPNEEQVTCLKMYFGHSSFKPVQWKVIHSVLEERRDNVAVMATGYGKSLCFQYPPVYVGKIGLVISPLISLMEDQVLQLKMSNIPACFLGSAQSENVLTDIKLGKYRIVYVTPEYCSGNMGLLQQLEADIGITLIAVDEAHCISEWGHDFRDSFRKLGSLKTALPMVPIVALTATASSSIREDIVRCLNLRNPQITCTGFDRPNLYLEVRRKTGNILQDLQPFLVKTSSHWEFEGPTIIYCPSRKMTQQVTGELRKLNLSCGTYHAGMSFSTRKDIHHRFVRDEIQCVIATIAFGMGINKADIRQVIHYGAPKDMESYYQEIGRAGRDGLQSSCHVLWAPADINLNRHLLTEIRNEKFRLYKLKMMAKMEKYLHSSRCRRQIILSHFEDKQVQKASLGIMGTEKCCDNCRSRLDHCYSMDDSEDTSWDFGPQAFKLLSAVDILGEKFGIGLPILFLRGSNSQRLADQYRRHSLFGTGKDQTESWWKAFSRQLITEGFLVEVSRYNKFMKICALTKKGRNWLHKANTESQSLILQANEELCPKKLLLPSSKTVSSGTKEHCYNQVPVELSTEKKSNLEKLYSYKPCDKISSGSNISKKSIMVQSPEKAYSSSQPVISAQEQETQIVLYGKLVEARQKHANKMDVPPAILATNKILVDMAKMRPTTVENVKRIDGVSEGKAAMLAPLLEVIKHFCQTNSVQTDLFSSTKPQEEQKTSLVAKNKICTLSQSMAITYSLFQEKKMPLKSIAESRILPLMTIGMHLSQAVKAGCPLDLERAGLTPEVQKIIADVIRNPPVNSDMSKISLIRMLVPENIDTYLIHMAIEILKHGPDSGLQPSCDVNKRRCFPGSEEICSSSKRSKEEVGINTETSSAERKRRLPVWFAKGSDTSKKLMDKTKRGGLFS
How it was run: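 Recombinant human WRN (5 nM) was preincubated with compound (1000–0.004 nM) for 15 min at room temperature. Flap26 5'-flap DNA (0.1 nM) and 30 µM ATP were then added for 10 min in Tris pH 7.5, MgCl2, NaCl, BSA, Pluronic buffer. ADP was detected by ADP-Glo luminescence, and IC50 was obtained by nonlinear regression versus a 0.1% DMSO control.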

RL95-2 cells = assay: Inhibition of RL95-2 cell proliferation (CellTiter-Glo); format: cell-based; settings: Homo sapiens; RL95-2 cells (MSI-H), 120 hours
Procedure: as §1, with “RL95-2” for “SW48”, “Cell Resource Center of Shanghai Institutes for Biological Sciences, Chinese Academy of Sciences,” for “American ATCC cell bank”, “DMEM/F12” for “Leibovitz's L-15”, “A4192001)” for “11415064)”
as §2, with “a 5% CO2” for “an air”, “incubator, and” for “incubator,”, “50” for “40”, “3.” for “2.”
The IC50 value results of the compounds of the present disclosure are represented by A, wherein "A" indicates 1 nM < IC50 ≤ 100 nM. Table 3 IC50 data for inhibition of RL95-2 cell proliferation by the compounds of the present disclosure

Row | pIC50 (SW48 cells) | pIC50 (recombinant human WRN) | SMILES | pIC50 (RL95-2 cells)
1 | 7.00 to 9.00 | > 9.00 | CCc1c(N2CCN(C(=O)c3ncnc(C)c3O)CC2)c(=O)n2nc(C=C3CCC3)nc2n1CC(=O)Nc1ccc(C(F)(F)F)cc1Cl [Example 33, N-(2-chloro-4-(trifluoromethyl)phenyl)-2-(2-(cyclobutylidenemethyl)-5-ethyl-6-(4-(5-hydroxy-6-methylpyrimidine-4-carbonyl)piperazin-1-yl)-7-oxo-[1,2,4]triazolo[1,5-a]pyrimidin-4(7H)-yl) acetamide] | –
2 | 7.00 to 9.00 | > 9.00 | CCc1c(N2CCN(C(=O)c3ncccc3O)CC2)c(=O)n2nc(C=C3CCC3)nc2n1CC(=O)Nc1ccc(S(F)(F)(F)(F)F)cc1 [Example 52, 2-(2-(cyclobutylidenemethyl)-5-ethyl-6-(4-(3-hydroxypicolinoyl)piperazin-1-yl)-7-oxo-[1,2,4]triazolo[1,5-a]pyrimidin-4(7H)-yl)-N-(4-(pentafluoro-λ^6-sulfaneyl)phenyl)acetamide] | –
3 | 7.00 to 9.00 | 7.00 to 9.00 | CCc1c(N2CCN(C(=O)c3ncnc(C)c3O)CC2)c(=O)n2nc(-c3ccc4c(c3)CCO4)nc2n1CC(=O)Nc1ccc(S(F)(F)(F)(F)F)cc1Cl [Example 87, N-(2-chloro-4-(pentafluoro-λ^6-sulfaneyl)phenyl)-2-(2-(2,3-dihydrobenzofuran-5-yl)-5-ethyl-6-(4-(5-hydroxy-6-methylpyrimidine-4-carbonyl)piperazin-1-yl)-7-oxo-[1,2,4]triazolo[1,5-a]pyrimidin-4(7H)-yl)acetamide] | –
4 | 7.00 to 9.00 | 7.00 to 9.00 | CCc1c(C2=CCN(C(=O)c3ncnc(C)c3O)CC2)c(=O)n2nc(C3=CCCCCC3)nc2n1CC(=O)Nc1ccc(S(F)(F)(F)(F)F)cc1 [Example 91, 2-(2-(cyclohept-1-en-1-yl)-5-ethyl-6-(1-(5-hydroxy-6-methylpyrimidine-4-carbonyl)-1,2,3,6-tetra hydropyridin-4-yl)-7-oxo-[1,2,4]triazolo[1,5-a]pyrimidin-4(7H)-yl)-N-(4-(pentafluoro-λ^6-sulfaneyl)phenyl)acetamide] | –
5 | 7.00 to 9.00 | 7.00 to 9.00 | CCc1c(N2CCN(C(=O)c3ncnc(C)c3O)CC2)c(=O)n2nc(-c3cc4ccccc4o3)nc2n1CC(=O)Nc1ccc(S(F)(F)(F)(F)F)cc1 [Example 96, 2-(2-(benzofuran-2-yl)-5-ethyl-6-(4-(5-hydroxy-6-methylpyrimidine-4-carbonyl)piperazin-1-yl)-7-oxo-[1,2,4]triazolo[1,5-a]pyrimidin-4(7H)-yl)-N-(4-(pentafluoro-λ^6-sulfaneyl)phenyl)acetamide] | –
6 | 7.00 to 9.00 | 7.00 to 9.00 | CCc1c(N2CCN(C(=O)c3ncccc3O)CC2)c(=O)n2nc(-c3ccc4c(c3)CCO4)nc2n1CC(=O)Nc1ccc(C(F)(F)F)cc1Cl [Example 104, N-(2-chloro-4-(trifluoromethyl)phenyl)-2-(2-(2,3-dihydrobenzofuran-5-yl)-5-ethyl-6-(4-(3-hydroxypicolinoyl)piperazin-1-yl)-7-oxo-[1,2,4]triazolo[1,5-a]pyrimidin-4(7H)-yl)acetamide] | –
7 | 7.00 to 9.00 | 7.00 to 9.00 | CCc1c(N2CCN(C(=O)c3nc(C)ccc3O)CC2)c(=O)n2nc(-c3ccc4c(c3)CCO4)nc2n1CC(=O)Nc1ccc(C(F)(F)F)cc1Cl [Example 105, N-(2-chloro-4-(trifluoromethyl)phenyl)-2-(2-(2,3-dihydrobenzofuran-5-yl)-5-ethyl-6-(4-(3-hydroxy-6-methylpicolinoyl)piperazin-1-yl)-7-oxo-[1,2,4]triazolo[1,5-a]pyrimidin-4(7H)-yl)a cetamide] | –
8 | 7.00 to 9.00 | 7.00 to 9.00 | CCc1c(N2CCN(C(=O)c3ncncc3O)CC2)c(=O)n2nc(-c3ccc4c(c3)CCO4)nc2n1CC(=O)Nc1ccc(C(F)(F)F)cc1Cl [Example 151, N-(2-chloro-4-(trifluoromethyl)phenyl)-2-(2-(2,3-dihydrobenzofuran-5-yl)-5-ethyl-6-(4-(5-hydroxypyrimidine-4-carbonyl)piperazin-1-yl)-7-oxo-[1,2,4]triazolo[1,5-a]pyrimidin-4(7H)-yl)acetamide] | –
9 | 7.00 to 9.00 | 7.00 to 9.00 | Cc1ncnc(C(=O)N2CCN(c3c(C4CCC4)n(CC(=O)Nc4ccc(C(F)(F)F)cc4Cl)c4nc(-c5ccc6c(c5)CCO6)nn4c3=O)CC2)c1O [Example 155, N-(2-chloro-4-(trifluoromethyl)phenyl)-2-(5-cyclobutyl-2-(2,3-dihydrobenzofuran-5-yl)-6-(4-(5-hydroxy-6-methylpyrimidine-4-carbonyl)piperazin-1-yl)-7-oxo-[1,2,4]triazolo[1,5-a]pyrimidin-4(7H)-yl)acetamide] | –
10 | – | 7.00 to 9.00 | CCc1c(N2CCN(C(=O)c3ncnc(C)c3O)CC2)c(=O)n2nc(C3=CC4CC4C3)nc2n1CC(=O)Nc1ccc(S(F)(F)(F)(F)F)cc1Cl (stereo not shown) [Example 167, 2-(2-(bicyclo[3.1.0]hex-2-en-3-yl)-5-ethyl-6-(4-(5-hydroxy-6-methylpyrimidine-4-carbonyl)piperazin-1-yl)-7-oxo-[1,2,4]triazolo[1,5-a]pyrimidin-4(7H)-yl)-N-(2-chloro-4-(pentafluoro-λ^6-sulfaneyl)phenyl)acetamide] | 7.00 to 9.00
11 | 7.00 to 9.00 | 7.00 to 9.00 | [2H]c1cc2cc(-c3nc4n(CC(=O)Nc5ccc(C(F)(F)F)cc5Cl)c(CC)c(N5CCN(C(=O)c6ncnc(C)c6O)CC5)c(=O)n4n3)ccc2s1 [Example 169, 2-(2-(benzo[b]thiophen-5-yl-2-d)-5-ethyl-6-(4-(5-hydroxy-6-methylpyrimidine-4-carbonyl)piperazin-1-yl)-7-oxo-[1,2,4]triazolo[1,5-a]pyrimidin-4(7H)-yl)-N-(2-chloro-4-(trifluoromethyl)phenyl) acetamide] | –
12 | 7.00 to 9.00 | 7.00 to 9.00 | [2H]c1sc2ccc(-c3nc4n(CC(=O)Nc5ccc(C(F)(F)F)cc5Cl)c(CC)c(N5CCN(C(=O)c6ncnc(C)c6O)CC5)c(=O)n4n3)cc2c1[2H] [Example 170, 2-(2-(benzo[b]thiophen-5-yl-2,3-d2)-5-ethyl-6-(4-(5-hydroxy-6-methylpyrimidine-4-carbonyl)piperazin-1-yl)-7-oxo-[1,2,4]triazolo9[1,5-a]pyrimidin-4(7H)-yl)-N-(2-chloro-4-(trifluoromethyl)phenyl)acetamide] | –
13 | 7.00 to 9.00 | 7.00 to 9.00 | CCc1c(N2CCN(C(=O)c3ncnc(C)c3O)CC2)c(=O)n2nc(C3=CCC4(CC3)CC4)nc2n1CC(=O)Nc1ccc(S(F)(F)(F)(F)F)cc1Cl [Example 174, N-(2-chloro-4-(pentafluoro-λ^6-sulfaneyl)phenyl)-2-(5-ethyl-6-(4-(5-hydroxy-6-methylpyrimidine-4-carbonyl)piperazin-1-yl)-7-oxo-2-(spiro[2.5]oct-5-en-6-yl)-[1,2,4]triazolo[1,5-a]pyrimidin-4(7 H)-yl)acetamide] | –
14 | 7.00 to 9.00 | 7.00 to 9.00 | CCc1c(N2CCN(C(=O)c3ncnc(C)c3O)CC2)c(=O)n2nc(C3=CCC4(CC3)COC4)nc2n1CC(=O)Nc1ccc(S(F)(F)(F)(F)F)cc1Cl [Example 175, N-(2-chloro-4-(pentafluoro-λ6-sulfaneyl)phenyl)-2-(5-ethyl-6-(4-(5-hydroxy-6-methylpyrimidine-4-carbonyl)piperazin-1-yl)-7-oxo-2-(2-oxaspiro[3.5]non-6-en-7-yl)-[1,2,4]triazolo[1,5-a]pyrimidin-4(7H)-yl)acetamide] | –
